{"source": "patent US20220168243A1", "about": "(priority 2020, published 2022)", "key": {"[1]": {"system": "coronaviruses (MERS; SARS-1; SARS-2)", "details": "cited from earlier work"}, "SARS-CoV-2": {"system": "SARS-CoV-2", "format": "cell-based, SARS-CoV-2 (USA-WA1/2020)"}, "Vero E6 cells": {"system": "Vero E6 cells", "experiment": "Toxicity: CellTiter-Blue Cell Viability Assay"}}, "data": [{"smiles": "CC(C)N1CCN(c2ccc(OCC3COC(Cn4cncn4)(c4ccc(Cl)cc4Cl)O3)cc2)CC1", "note": "(stereo not shown) [terconazole, reference compound]", "values": [{"measurement": "CoV Inhibition", "setting": "[1]", "result": "MERS; SARS-1"}]}, {"smiles": "CN(C)CCCN1c2ccccc2Sc2ccc(Cl)cc21", "note": "[chlorpromazine]", "values": [{"measurement": "CoV Inhibition", "setting": "[1]", "result": "SARS-2;"}]}, {"smiles": "OCCN1CCN(CCCN2c3ccccc3Sc3ccc(C(F)(F)F)cc32)CC1", "note": "[fluphenazine]", "values": [{"measurement": "CoV Inhibition", "setting": "[1]", "result": "SARS-2; and MERS"}]}, {"smiles": "CN(C)CCCN1c2ccccc2Sc2ccccc21", "note": "[Promazine, reference compound]", "values": [{"measurement": "% Inhibition at HIGHEST Non-toxic Concentration", "setting": "SARS-CoV-2", "result": 70, "unit": "%"}, {"measurement": "TOXICITY Y/N", "setting": "Vero E6 cells", "result": "Very weak"}, {"measurement": "CoV Inhibition", "setting": "[1]", "result": "MERS; SARS-1 and MERS"}]}, {"smiles": "NC(=O)C(c1ccccc1)(c1ccccc1)[C@@H]1CCN(CCc2ccc3c(c2)CCO3)C1", "note": "[Darifenacin]", "values": [{"measurement": "% Inhibition at HIGHEST Non-toxic Concentration", "setting": "SARS-CoV-2", "result": 45, "unit": "%"}]}, {"smiles": "CC(C)NCC(O)COc1cccc2ccccc12", "note": "(stereo not shown) [propranolol, reference compound]", "values": [{"measurement": "CoV Inhibition", "setting": "[1]", "result": "MERS; SARS-1"}]}, {"smiles": "COc1c(C)c2c(c(O)c1C/C=C(\\C)CCC(=O)OCCN1CCOCC1)C(=O)OC2", "note": "[mycophenolate_mofetil, reference compound]", "values": [{"measurement": "CoV Inhibition", "setting": "[1]", "result": "MERS; SARS-1"}]}, {"smiles": "CCN(CC)Cc1cc(Nc2ccnc3cc(Cl)ccc23)ccc1O", "note": "[amodiaquine]", "values": [{"measurement": "CoV Inhibition", "setting": "[1]", "result": "SARS-2; and MERS"}]}, {"smiles": "CCN(CCCc1ccccc1)CCCc1ccccc1", "note": "[Alverine]", "values": [{"measurement": "% Inhibition at HIGHEST Non-toxic Concentration", "setting": "SARS-CoV-2", "result": 30, "unit": "%"}]}, {"smiles": "CCCCC1C(=O)N(c2ccccc2)N(c2ccccc2)C1=O", "note": "[Phenylbutazone]", "values": [{"measurement": "% Inhibition at HIGHEST Non-toxic Concentration", "setting": "SARS-CoV-2", "result": 90, "unit": "%"}]}, {"smiles": "CC(CN1c2ccccc2Sc2ccccc21)N(C)C", "note": "(stereo not shown) [promethazine]", "values": [{"measurement": "CoV Inhibition", "setting": "[1]", "result": "MERS"}]}, {"smiles": "Cc1cn(-c2cc(NC(=O)c3ccc(C)c(Nc4nccc(-c5cccnc5)n4)c3)cc(C(F)(F)F)c2)cn1", "note": "[Nilotinib]", "values": [{"measurement": "% Inhibition at HIGHEST Non-toxic Concentration", "setting": "SARS-CoV-2", "result": 60, "unit": "%"}]}, {"smiles": "CC(COc1ccccc1)N(CCCl)Cc1ccccc1", "note": "(stereo not shown) [Phenoxybenzamine]", "values": [{"measurement": "% Inhibition at HIGHEST Non-toxic Concentration", "setting": "SARS-CoV-2", "result": 95, "unit": "%"}]}, {"smiles": "CCN(CC)CCCC(C)Nc1ccnc2cc(Cl)ccc12", "note": "(stereo not shown) [chloroquine]", "values": [{"measurement": "CoV Inhibition", "setting": "[1]", "result": "MERS"}]}, {"smiles": "CN(C)CCCN1c2ccccc2CCc2ccc(Cl)cc21", "note": "[clomipramine]", "values": [{"measurement": "CoV Inhibition", "setting": "[1]", "result": "MERS"}]}, {"smiles": "Fc1ccc(C(c2ccc(F)cc2)N2CCN(C/C=C/c3ccccc3)CC2)cc1", "note": "[Flunarizine]", "values": [{"measurement": "% Inhibition at HIGHEST Non-toxic Concentration", "setting": "SARS-CoV-2", "result": 80, "unit": "%"}]}, {"smiles": "CCSc1ccc2c(c1)N(CCCN1CCN(C)CC1)c1ccccc1S2", "note": "[thiethylperazine]", "values": [{"measurement": "CoV Inhibition", "setting": "[1]", "result": "SARS-2; and MERS"}]}, {"smiles": "CC(C)COCC(CN(Cc1ccccc1)c1ccccc1)N1CCCC1", "note": "(stereo not shown) [Bepridil, reference compound]", "values": [{"measurement": "% Inhibition at HIGHEST Non-toxic Concentration", "setting": "SARS-CoV-2", "result": 60, "unit": "%"}]}, {"smiles": "CCN(CCO)CCCC(C)Nc1ccnc2cc(Cl)ccc12", "note": "(stereo not shown) [hydroxychloroquine]", "values": [{"measurement": "CoV Inhibition", "setting": "[1]", "result": "SARS-2; and MERS"}]}, {"smiles": "C=CCc1ccccc1OCC(O)CNC(C)C", "note": "(stereo not shown) [alprenolol]", "values": [{"measurement": "CoV Inhibition", "setting": "[1]", "result": "MERS"}]}, {"smiles": "Cc1ccc(NC(=O)c2ccc(CN3CCN(C)CC3)cc2)cc1Nc1nc(-c2cccnc2)cs1", "note": "[Masitinib]", "values": [{"measurement": "% Inhibition at HIGHEST Non-toxic Concentration", "setting": "SARS-CoV-2", "result": 90, "unit": "%"}]}, {"smiles": "CNCCCN1c2ccccc2CCc2ccccc21", "note": "[Desipramine, reference compound]", "values": [{"measurement": "% Inhibition at HIGHEST Non-toxic Concentration", "setting": "SARS-CoV-2", "result": 60, "unit": "%"}, {"measurement": "TOXICITY Y/N", "setting": "Vero E6 cells", "result": "Very weak"}, {"measurement": "CoV Inhibition", "setting": "[1]", "result": "MERS; SARS-1 and MERS"}]}, {"smiles": "COc1cc2nc(N3CCN(C(=O)C4COc5ccccc5O4)CC3)nc(N)c2cc1OC", "note": "(stereo not shown) [doxazosin, reference compound]", "values": [{"measurement": "CoV Inhibition", "setting": "[1]", "result": "MERS; SARS-1"}]}, {"smiles": "OCCOc1ccc(/C(=C(/CCCl)c2ccccc2)c2ccccc2)cc1", "note": "[Ospemifene]", "values": [{"measurement": "% Inhibition at HIGHEST Non-toxic Concentration", "setting": "SARS-CoV-2", "result": 45, "unit": "%"}]}]}
